This is an account of results in paper PMC3694003 (PLoS ONE, 2013).

The subject of series [1] is primary activated human lymphocytes (PBMCs). Type of series: cell-based. The settings on record: for immunosuppressive activity: mutation in hydrophilic 'bioactive face', Table 1, Figure 2. The procedure: (§1) Purified T-cells were obtained by CD3^+ positive selection using magnetic cell separation method according to manufacturer’s instructions (StemCell Technologies, Grenoble, France). Cells were washed twice with medium and cell viability as well as concentration was determined using the trypan blue exclusion test.
(§2) After cultivation, the cells were assessed in biological tests as described. Alternatively for IL-2 supplementation assays, lymphocytes or purified T-cells were equilibrated for 2 h at 37°C.

Series [2] has as its system purified human T-cells (CD3+). Type of series: cell-based. The settings on record: cyclotides 1.8-14 µM. The procedure:
as §1, §2

Series [3] deals with IL-2 release of activated lymphocytes. Type of series: cell-based, human. The settings on record: 4 µM; 24 h then PMA/ionomycin 6 h; mean ± SD. The procedure:
as §2
(§3) Cells were treated for 24 or 36 h, respectively and were restimulated with PMA (50 ng/mL) and ionomycin (500 ng/mL) for additional 6 h. Supernatants were harvested by centrifugation and were stored at -20°C. The amount of cytokines was measured and quantified using the FlowCytomix^TM technique according to manufacturer’s instructions (eBioscience) or alternatively intracellular cytokine production was determined. For this purpose the cells were fixed and permeabilized using 4% paraformaldehyde (Sigma-Aldrich) and Perm/Wash solution (Becton Dickinson), followed by staining with PE-conjugated anti-human IFN-γ mAb or anti-human TNF-α mAb (both from eBioscience), respectively. For CD107a degranulation assay, cells were restimulated with PMA (10 or 50 ng/mL, respectively) und ionomycin (100 or 500 ng/mL, respectively) and to each well containing 200 µL of cell suspension, 5 µL (~0.25 µg) PE-conjugated anti-CD107a mAb (eBioscience) were added. After incubation at 37°C for 1 h, 2 µL of 1/10 diluted GolgiStop (Becton Dickinson) was added per well and the plates were incubated for another 2.5 h. Samples were analyzed with a BD FACSCalibur flow cytometer using BD CellQuest Pro Software.

In series [4] the test system is Ca2+-release in human primary T-cells. The experiment in a line: Ca2+-release assay in T-cells. To be noted: for inhibition or delay of PMA/ionomycin-triggered Ca2+-release after pretreatment: 4 µM overnight (16 h), Fluo-4/Fura Red flow cytometry; for direct change in Ca2+-signaling: 4 µM, Fura-2 loaded T-cells, fluorometer. The class given is cell-based. On the procedure:
Human primary T-cells (1 x 10^6/mL) were loaded with 1 µM Fura-2 and 0.02% Puronic F-127 for 30 min at 37°C. Cells were centrifuged for 5 min at 1200 rpm and resuspended in RPMI 1640 media supplemented with 10% fetal calf serum, penicillin (100 U/mL) and streptomycin (100 U/mL). 100 µL of cell suspension were transferred into a black 96-well plate with a clear flat-bottom. Briefly before analysis the fluorometer Synergy H4 (BioTek, Winooski, VT) was equilibrated to 37°C. The fluorescence time course was measured with: extinction at 340 and 380 nm, respectively, and emission at 510 nm in 30 sec intervals, while continuously shaking. […] To receive maximum Ca^2+-release, cells were stimulated with PMA (50 ng/mL) and ionomycin (500 ng/mL). For lowest Ca^2+-levels, cells remained untreated. […] (4 µM each) or left untreated over night at 37°C in a 24-well flat-bottom plate. Cells were stained for 15 min with Fluo-4 (2 µM) and Fura Red (4 µM), centrifuged at 1000 rpm for 5 min and resuspended in medium. Ca^2+-release was measured by time-dependent flow cytometry using BD FACSCalibur as described previously. Fluo-4 and Fura Red signals were detected using flow cytometric analysis. After equilibrating basal calcium levels for 60 sec, PMA (50 ng/mL) and ionomycin (500 ng/mL) were added to the preincubated T-cells. Fluorescence ratio was calculated using WEASEL 2.3 software.

In series [5] the test system is degranulation marker LAMP-1 (CD107a). The experiment in a line: CD107a degranulation assay. Type of series: cell-based, human. The settings on record: 36 h, 4 µM, mean ± SD, three experiments. On the procedure:
as §3

The next series concerns il-2 mRNA. Briefly: il-2 gene expression, quantitative RT-PCR. To be noted: 4 µM; lymphocytes; normalized to 18s rRNA. Type of series: cell-based, human. The procedure:
Total RNA was extracted from controls or treated cells (4 x 10^6) and frozen at -80°C until further use. RNA purification was performed according to the manufacturer’s instructions for the RNeasy mini and RNAse-Free DNAse digestion kits (Qiagen, Hamburg, Germany). The quantity and purity of extracted RNA was measured by nanodrop spectrophotometry (Peqlab, Erlangen, Gemany) and purified RNA was reverse transcribed using the RT^2 First Strand Kit (Qiagen). RT-PCR reactions were carried out on a MyiQ kit (BioRad, Munich, Germany) in a final volume of 25 µL using RT² qPCR Primer Assay (for il-2) and SYBR® Green qPCR master mix (both from Qiagen). Each determination was performed in duplicate and the housekeeping gene 18s rRNA was used as an internal control. The real-time thermal cycler program comprised an initial denaturation step at 95 °C for 10 min followed by a two-step program with 40 cycles (95°C, 15 sec; and 60°C, 60 sec). The relative gene expression of il-2 has been determined by comparative cycle threshold analysis and the data were normalized to the internal housekeeping gene 18s rRNA and the relative mRNA level in the untreated group (untreated PHA-L-activated).

Series [6] deals with IL-2 surface receptor CD25. The class given is cell-based, human. To be noted: 4 µM; for IL-2 surface receptor CD25 expression compared to stimulated lymphocytes (ctrl, 100%): mean ± SD. On the procedure: as §2
Cultured cells were washed with PBS and stained with PE-labeled anti-human CD25 mAbs (eBioscience) for 15 min at 4°C. Afterwards, the cells were washed twice with PBS and resuspended and transferred into FACS vials and expression of the IL-2 surface receptor α-chain CD25 was measured by FACS analysis using a FACSCalibur instrument.

Series [7] deals with primary human lymphocytes. The class given is cell-based. To be noted: for proliferation compared to control, pretreated and washed cells with exogenous IL-2 / proliferation compared to control cells, pretreated and washed cells without exogenous IL-2: 4 µM pretreatment, PHA-L 10 µg/mL, day three, mean ± SD, three experiments; for proliferation compared to control, pretreated and washed cells with exogenous IL-2: recombinant human IL-2 added. On the procedure: as §2
10 µg/milliliter PHA-L for 1 h. This was followed by washing off the substances and stimuli with PBS and resuspending the cells in medium for further assays as described.

Series [8] relates to lymphocytes and purified T-cells. Briefly: Cytotoxicity in proliferation experiments. The class given is cell-based, human. To be noted: analyzed concentration range up to 14 µM. On the procedure:
as §2

The test system of the next series is IFN-γ. Briefly: IFN-γ production of activated lymphocytes. The class given is cell-based, human. The settings on record: 4 µM, mean ± SD; for IFN-γ concentration compared to control: 24 h post stimulation, supernatant, ELISA-based, three experiments. The procedure:
as §3

For series [9], the system named is IL-2 release of purified T-cells. Briefly: IL-2 secretion of purified T-cells, ELISA-based. The class given is cell-based, human. The settings on record: 4 µM; 24 h then PMA/ionomycin 6 h; relative to [V10K] kalata B1. The procedure: as §2, §3
For the next series, the system named is TNF-α. The experiment in a line: TNF-α production of activated lymphocytes. Type of series: cell-based, human. The settings on record: 4 µM, mean ± SD; for TNF-α production compared to control: 36 h post stimulation, intracellular cytokine flow cytometry. The procedure: as §3

Like-named read-outs stand apart in the source and are kept apart here. Bridge positions count the residues as written; N and C are the ends. Ends that are not written are not given here. Peptide text beside a SMILES is read from it.

On to “[V10A]: single point-mutated alanine analogue of kalata B1, position 10 (cyclo(GLPVCGETCAGGTCNTPGCTCSWPVCTRN); disulfide 14-26, 5-19, 9-21; ends not checked; UniProt P56254 89-117, looked up, variant V10A)”, for which, in [1], the immunosuppressive activity entry is “lost their immunosuppressive activity”. Further, in series [2], the “suppression of the proliferation of T-cells” value (“suppression” for short) is “did not suppress”.
For the compound `CC(C)C[C@@H]1NC(=O)CNC(=O)[C@H](CC(N)=O)NC(=O)[C@H](CCCNC(=N)N)NC(=O)[C@H]([C@@H](C)O)NC(=O)[C@@H]2CSSC[C@@H]3NC(=O)[C@H]([C@@H](C)O)NC(=O)CNC(=O)CNC(=O)[C@H](C(C)C)NC(=O)[C@@H]4CSSC[C@H](NC(=O)[C@H](CCCCN)NC(=O)[C@H](CSSC[C@H](NC(=O)[C@H](C(C)C)NC(=O)[C@@H]5CCCN5C1=O)C(=O)NCC(=O)N[C@@H](CCC(=O)O)C(=O)N[C@@H]([C@@H](C)O)C(=O)N4)NC(=O)CNC(=O)[C@@H]1CCCN1C(=O)[C@H]([C@@H](C)O)NC(=O)[C@H](CC(N)=O)NC3=O)C(=O)N[C@@H](CO)C(=O)N[C@@H](Cc1c[nH]c3ccccc13)C(=O)N1CCC[C@H]1C(=O)N[C@@H](C(C)C)C(=O)N2` [[T20K]] (cyclo(CGETCVGGTCNTPGCKCSWPVCTRNGLPV); disulfide 1-15, 5-17, 10-22 (inferred); ring closure inferred), the “IL-2 release of T-lymphocytes compared to control cells” value in series [3] was 24% ± 19. In series [4], the “inhibition or delay of PMA/ionomycin-triggered Ca2+-release after pretreatment” value was “Neither cyclotides nor CsA induced any inhibition or a delay” and the “direct change in Ca2+-signaling” value is reported as “did not induce any change”. The “cells containing degranulation marker LAMP-1 as compared to control” value in series [5] was 49% ± 17. Also, in [1] (CFSE flow cytometry, day three post stimulation, cyclotides 1.8-14 µM, non-linear regression (fixed slope), mean ± SD, a: n=7, b: n=4, c: n=3, read-out: IC50 (µM) ± SD, inhibition of lymphocyte (PBMC) proliferation), the IC50 worked out at 1.9 ± 0.6 µM. Also, in series [2] (CFSE flow cytometry, day 3, non-linear regression (fixed slope), mean ± SD, c: n=3, d: n=2, read-out: IC50 (µM) ± SD, inhibition of purified T-cell proliferation), the IC50 was found to be 2.7 ± 0.6 µM. The “level of il-2 mRNA compared to control” value in the series on il-2 mRNA is on record as “clearly decreased”. Besides, in series [6] (24 h), the “IL-2 surface receptor CD25 expression compared to stimulated lymphocytes (ctrl, 100%)” value was 79% ± 10. In addition, the “IL-2 surface receptor CD25 expression compared to stimulated lymphocytes (ctrl, 100%)” value in series [6] (36 h) is recorded as 46% ± 18. Also, in series [7], the “proliferation compared to control, pretreated and washed cells with exogenous IL-2” value is on record as 91% ± 1.4; the “proliferation compared to control cells, pretreated and washed cells without exogenous IL-2” value is recorded as 29% ± 24. For the same compound, in series [7] (peptide still present throughout the whole cultivation period (not washed off)), the “restoring of normal proliferation by addition of IL-2” value is “ineffective”. Further, in series [8], the cytotoxicity result is on record as “no signs of cytotoxicity”. Moreover, the “IFN-γ concentration compared to control” value in the series with IFN-γ is 21% ± 13. Moreover, the “IFN-γ level compared to control” value in the series on IFN-γ (36 h post stimulation, intracellular cytokine flow cytometry) is “no effect”. For the same compound, the “IL-2 release of purified T-cells” value in series [9] is on record as “significantly decreased”. In addition, the “TNF-α expression compared to control” value in the series with TNF-α (24 h post stimulation, supernatant, ELISA-based) was 23% ± 11. Moreover, in the series on TNF-α, the “TNF-α production compared to control” value is reported as “did not affect”.
On to cyclosporin A [CsA, reference compound], for which, in series [4], the “inhibition or delay of PMA/ionomycin-triggered Ca2+-release after pretreatment” value was “Neither cyclotides nor CsA induced any inhibition or a delay” and the “direct change in Ca2+-signaling” value is on record as “did not induce any change”. The “cells containing degranulation marker LAMP-1 as compared to control” value in series [5] was 42% ± 21. Besides, the “level of il-2 mRNA compared to control” value in the series on il-2 mRNA was “clearly decreased”. For the same compound, the “IL-2 surface receptor CD25 expression compared to stimulated lymphocytes (ctrl, 100%)” value in series [6] (24 h) is reported as 76% ± 11. In addition, the “IL-2 surface receptor CD25 expression compared to stimulated lymphocytes (ctrl, 100%)” value in series [6] (36 h) is given as 62% ± 7.3.
Turning to “[V10K]: single point-mutated lysine analogue of kalata B1, position 10; 'inactive' mutant (GLPVCGETCKGGTCNTPGCTCSWPVCTRN; ends and bridges not checked; cysteine pairing not given here; UniProt P56254 89-117, looked up, variant V10K)”, the “IL-2 release of T-lymphocytes compared to control cells” value in series [3] is reported as “no effect”. In series [4], the “inhibition or delay of PMA/ionomycin-triggered Ca2+-release after pretreatment” value is “Neither cyclotides nor CsA induced any inhibition or a delay” and the “direct change in Ca2+-signaling” value is given as “did not induce any change”. The “cells containing degranulation marker LAMP-1 as compared to control” value in series [5] was “no influence”. In series [1], the immunosuppressive activity result is on record as “lost their immunosuppressive activity”. In addition, in series [2], the “suppression” value is reported as “did not suppress”. In series [6] (time not given), the “IL-2 receptor surface level” value is on record as “unaffected”. Moreover, in series [7], the “proliferation compared to control, pretreated and washed cells with exogenous IL-2” value is “did not have any effect”; the “proliferation compared to control cells, pretreated and washed cells without exogenous IL-2” value was “no effect”. Also, in the series with IFN-γ, the “IFN-γ concentration compared to control” value is listed as “not affected”. In addition, the “TNF-α production compared to control” value in the series with TNF-α is listed as “did not affect”.
Consider “[T8K]: single point-mutated lysine analogue of kalata B1, position 8 (GLPVCGEKCVGGTCNTPGCTCSWPVCTRN; ends and bridges not checked; cysteine pairing not given here; UniProt P56254 89-117, looked up, variant T8K)”, for which the “IC50 (µM) ± SD, inhibition of lymphocyte (PBMC) proliferation” value in series [1] (CFSE flow cytometry, day three post stimulation, cyclotides 1.8-14 µM, non-linear regression (fixed slope), mean ± SD, a: n=7, b: n=4, c: n=3) is “not active (n.a.)^b”. Moreover, the immunosuppressive activity result in series [1] is reported as “lost their immunosuppressive activity”. Also, the “suppression” value in [2] was “did not suppress”.
